Measured values reported in publication PMC12371494, “Discovery of YTHDF2 Ligands by Fragment-Based Design” (ACS Bio & Med Chem Au, 2025).

molecular target: T1, GST-YTHDF2 (Homo sapiens, UniProt Q9Y5A9); test: HTRF-based binding assay, competition with m6A-oligoRNA, DF2; settings: HTRF DF2
T1 construct: made in house
T1 sequence (Q9Y5A9 1-579): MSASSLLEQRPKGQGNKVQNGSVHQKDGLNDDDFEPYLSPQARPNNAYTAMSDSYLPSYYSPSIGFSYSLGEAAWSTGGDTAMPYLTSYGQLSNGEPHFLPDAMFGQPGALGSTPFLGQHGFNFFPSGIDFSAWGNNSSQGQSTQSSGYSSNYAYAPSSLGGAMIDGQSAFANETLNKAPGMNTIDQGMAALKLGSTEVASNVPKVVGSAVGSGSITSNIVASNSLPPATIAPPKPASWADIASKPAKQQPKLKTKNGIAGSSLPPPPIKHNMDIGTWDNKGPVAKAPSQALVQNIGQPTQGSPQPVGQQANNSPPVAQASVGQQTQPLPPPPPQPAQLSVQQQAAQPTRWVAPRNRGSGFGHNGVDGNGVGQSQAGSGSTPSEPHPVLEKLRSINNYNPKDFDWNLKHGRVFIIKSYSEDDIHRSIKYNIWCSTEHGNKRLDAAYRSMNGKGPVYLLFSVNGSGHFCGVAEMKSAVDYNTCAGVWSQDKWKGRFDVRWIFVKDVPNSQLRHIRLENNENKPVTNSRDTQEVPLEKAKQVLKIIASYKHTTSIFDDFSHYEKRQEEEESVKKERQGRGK

Structure (SMILES) | Improvement of HTRF IC50 compared to fragment 14
Cc1c(-c2ccc([N+](=O)[O-])cc2)sc2[nH]c(=S)[nH]c(=O)c12 [Compound 26] | 3- to 4 fold
Cc1c(-c2ccc(N)cc2)sc2[nH]c(=S)[nH]c(=O)c12 [Compound 27] | 3- to 4 fold

same assay, conditions: HTRF IC50 values

Structure (SMILES) | Potency for DF2 relative to 6-cyclopropyluracil [factor]
Cc1c(C(=O)NCc2cccnc2)sc2[nH]c(=S)[nH]c(=O)c12 [Compound 23] | 15

same assay, conditions: HTRF, 100 µM compound, normalized

Structure (SMILES) | Single-dose residual signal at 100 µM, DF2 [%]
Cc1c(C(=O)NCc2cccnc2)sc2[nH]c(=S)[nH]c(=O)c12 [Compound 23] | 9
Cc1c(C(=O)NCc2cccc(C(=O)O)c2)sc2[nH]c(=S)[nH]c(=O)c12 [Compound 24] | 3
Cc1c(C(=O)NCCCC(=O)O)sc2[nH]c(=S)[nH]c(=O)c12 [Compound 25] | 7
Cc1c(-c2ccc([N+](=O)[O-])cc2)sc2[nH]c(=S)[nH]c(=O)c12 [Compound 26] | 7
Cc1c(-c2ccc(N)cc2)sc2[nH]c(=S)[nH]c(=O)c12 [Compound 27] | 0
NC(=O)c1csc2[nH]c(=S)[nH]c(=O)c12 [Compound 31] | 13

same assay, conditions: LE = -RT ln IC50/HAC from HTRF IC50

Structure (SMILES) | LE (ligand efficiency, DF2)
Cc1c(C(=O)NCc2cccnc2)sc2[nH]c(=S)[nH]c(=O)c12 [Compound 23] | 0.31 kcal/(mol HAC)
Cc1c(C(=O)NCc2cccc(C(=O)O)c2)sc2[nH]c(=S)[nH]c(=O)c12 [Compound 24] | 0.26 kcal/(mol HAC)
Cc1c(C(=O)NCCCC(=O)O)sc2[nH]c(=S)[nH]c(=O)c12 [Compound 25] | 0.32 kcal/(mol HAC)
Cc1c(-c2ccc([N+](=O)[O-])cc2)sc2[nH]c(=S)[nH]c(=O)c12 [Compound 26] | 0.35 kcal/(mol HAC)
Cc1c(-c2ccc(N)cc2)sc2[nH]c(=S)[nH]c(=O)c12 [Compound 27] | 0.39 kcal/(mol HAC)
NC(=O)c1csc2[nH]c(=S)[nH]c(=O)c12 [Compound 31] | 0.47 kcal/(mol HAC)

same assay, conditions: dose-response, competitor m6A-oligoRNA; read-out: DF2 IC50 (HTRF assay)

Structure (SMILES) | IC50 [µM]
Cc1c(C(=O)NCc2cccnc2)sc2[nH]c(=S)[nH]c(=O)c12 [Compound 23] | 11
Cc1c(C(=O)NCc2cccc(C(=O)O)c2)sc2[nH]c(=S)[nH]c(=O)c12 [Compound 24] | 20
Cc1c(C(=O)NCCCC(=O)O)sc2[nH]c(=S)[nH]c(=O)c12 [Compound 25] | 14
Cc1c(-c2ccc([N+](=O)[O-])cc2)sc2[nH]c(=S)[nH]c(=O)c12 [Compound 26] | 4.9
Cc1c(-c2ccc(N)cc2)sc2[nH]c(=S)[nH]c(=O)c12 [Compound 27] | 3.9
NC(=O)c1csc2[nH]c(=S)[nH]c(=O)c12 [Compound 31] | 14

molecular target: T2, GST-YTHDF1 (Homo sapiens, UniProt Q9BYJ9); test: HTRF-based binding assay, DF1; settings: HTRF, 62.5 μM compound
T2 construct: made in house
T2 sequence (Q9BYJ9 1-559): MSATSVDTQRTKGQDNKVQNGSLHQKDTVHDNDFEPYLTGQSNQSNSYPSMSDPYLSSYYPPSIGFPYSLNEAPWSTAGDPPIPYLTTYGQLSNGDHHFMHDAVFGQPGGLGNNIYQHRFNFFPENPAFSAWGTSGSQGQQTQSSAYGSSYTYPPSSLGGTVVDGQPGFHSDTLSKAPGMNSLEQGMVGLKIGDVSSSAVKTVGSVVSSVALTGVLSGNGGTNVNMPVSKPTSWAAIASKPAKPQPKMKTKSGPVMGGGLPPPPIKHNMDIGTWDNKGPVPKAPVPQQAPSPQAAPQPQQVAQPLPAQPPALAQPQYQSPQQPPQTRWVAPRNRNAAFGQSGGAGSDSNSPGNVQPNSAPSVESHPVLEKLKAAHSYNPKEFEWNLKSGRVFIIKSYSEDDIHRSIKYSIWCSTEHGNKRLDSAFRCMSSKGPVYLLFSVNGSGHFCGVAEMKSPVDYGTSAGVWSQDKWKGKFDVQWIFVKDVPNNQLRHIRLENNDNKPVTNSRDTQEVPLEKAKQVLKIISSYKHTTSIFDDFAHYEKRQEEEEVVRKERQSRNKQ
Experimental: (§1) The HTRF-based assay was employed to evaluate the selectivity of the series against other DF proteins.
(§2) A dose–response experiment on DF1 and DF3 was conducted for compounds 17, 18, 23, and 27 (Figure S5). Compounds 17, 18, and 27 are active on three DF proteins. […] In contrast, compound 23 is selective for DF2, with residual signals (at the highest employed concentration of 62.5 μM) of 51 and 87% for DF1 and DF3, respectively.
(§3) GST-YTHDC1, GST-YTHDF1, GST-YTHDF2, and GST-YTHDF3 were purified as previously reported. The HTRF assay was assembled as detailed in ref with the only difference being that the starting concentration of the dose–response experiments used for the IC50 determination was variated dependently from the tested compound. The same protocol was applied to the four proteins. The competitive inhibition data of GST-YTHDF1 (single dose experiment at 100 μM compound concentration and dose–response curves), GST-YTHDF3 (single dose experiment at 100 μM compound concentration and dose–response curves), and GST-YTHDF2 (single dose experiment at 100 μM compound concentration) were normalized as described in ref to mitigate interference. The signal was measured as described in ref .

Structure (SMILES) | Residual signal DF1 at highest concentration [%]
Cc1c(C(=O)NCc2cccnc2)sc2[nH]c(=S)[nH]c(=O)c12 [Compound 23] | 51

same assay, conditions: HTRF, 100 µM compound, normalized

Structure (SMILES) | Single-dose residual signal at 100 µM, DF1 [%]
Cc1c(C(=O)NCc2cccnc2)sc2[nH]c(=S)[nH]c(=O)c12 [Compound 23] | 20
Cc1c(C(=O)NCc2cccc(C(=O)O)c2)sc2[nH]c(=S)[nH]c(=O)c12 [Compound 24] | 5
Cc1c(C(=O)NCCCC(=O)O)sc2[nH]c(=S)[nH]c(=O)c12 [Compound 25] | 6
Cc1c(-c2ccc([N+](=O)[O-])cc2)sc2[nH]c(=S)[nH]c(=O)c12 [Compound 26] | 12
Cc1c(-c2ccc(N)cc2)sc2[nH]c(=S)[nH]c(=O)c12 [Compound 27] | 6
NC(=O)c1csc2[nH]c(=S)[nH]c(=O)c12 [Compound 31] | 27

same assay, conditions: dose-response

Structure (SMILES) | IC50 [µM]
Cc1c(C(=O)NCc2cccnc2)sc2[nH]c(=S)[nH]c(=O)c12 [Compound 23] | > 60
Cc1c(-c2ccc(N)cc2)sc2[nH]c(=S)[nH]c(=O)c12 [Compound 27] | 13

molecular target: T3, GST-YTHDF3 (Homo sapiens, UniProt Q7Z739); test: HTRF-based binding assay, DF3; settings: HTRF, 62.5 μM compound
T3 construct: made in house
T3 sequence (Q7Z739 1-585): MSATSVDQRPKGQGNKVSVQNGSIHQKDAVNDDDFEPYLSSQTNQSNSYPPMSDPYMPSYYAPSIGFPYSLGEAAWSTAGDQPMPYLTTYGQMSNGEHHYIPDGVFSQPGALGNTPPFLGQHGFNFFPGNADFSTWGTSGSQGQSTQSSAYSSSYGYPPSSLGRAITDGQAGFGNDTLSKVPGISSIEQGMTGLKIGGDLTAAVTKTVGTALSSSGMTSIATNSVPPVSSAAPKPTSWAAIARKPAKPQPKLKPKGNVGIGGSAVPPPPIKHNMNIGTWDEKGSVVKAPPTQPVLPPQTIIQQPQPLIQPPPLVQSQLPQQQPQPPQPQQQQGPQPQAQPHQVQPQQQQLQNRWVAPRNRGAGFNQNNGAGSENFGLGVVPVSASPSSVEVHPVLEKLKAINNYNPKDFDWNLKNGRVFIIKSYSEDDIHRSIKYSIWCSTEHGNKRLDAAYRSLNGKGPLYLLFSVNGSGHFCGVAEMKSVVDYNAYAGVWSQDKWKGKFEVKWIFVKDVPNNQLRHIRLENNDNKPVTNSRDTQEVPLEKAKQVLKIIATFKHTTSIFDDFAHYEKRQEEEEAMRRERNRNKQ
Experimental: as §1, §2, §3

Structure (SMILES) | Residual signal DF3 at highest concentration [%]
Cc1c(C(=O)NCc2cccnc2)sc2[nH]c(=S)[nH]c(=O)c12 [Compound 23] | 87

same assay, conditions: HTRF, 100 µM compound, normalized

Structure (SMILES) | Single-dose residual signal at 100 µM, DF3 [%]
Cc1c(C(=O)NCc2cccnc2)sc2[nH]c(=S)[nH]c(=O)c12 [Compound 23] | 33
Cc1c(C(=O)NCc2cccc(C(=O)O)c2)sc2[nH]c(=S)[nH]c(=O)c12 [Compound 24] | 12
Cc1c(C(=O)NCCCC(=O)O)sc2[nH]c(=S)[nH]c(=O)c12 [Compound 25] | 26
Cc1c(-c2ccc([N+](=O)[O-])cc2)sc2[nH]c(=S)[nH]c(=O)c12 [Compound 26] | 15
Cc1c(-c2ccc(N)cc2)sc2[nH]c(=S)[nH]c(=O)c12 [Compound 27] | 5
NC(=O)c1csc2[nH]c(=S)[nH]c(=O)c12 [Compound 31] | 36

same assay, conditions: dose-response

Structure (SMILES) | IC50 [µM]
Cc1c(C(=O)NCc2cccnc2)sc2[nH]c(=S)[nH]c(=O)c12 [Compound 23] | > 60
Cc1c(-c2ccc(N)cc2)sc2[nH]c(=S)[nH]c(=O)c12 [Compound 27] | 50

molecular target: YTHDC1 (Homo sapiens, UniProt Q96MU7); test: DNA-fluorescence polarization (FP) competition assay, DC1; type: binding; settings: not given
Experimental: The binding affinity for DC1 could not be evaluated by HTRF because of interference of the compounds with the assay, which has a smaller assay window when performed with DC1 compared to the DF proteins. Thus, the FP assay was used to evaluate binding to DC1 and DC2.
For fluorescence polarization (FP) experiments, a 5′-fluorescein-labeled m^6A-DNA probe (5′-FAM-[…](m6A)-CTAAGCT-3′) was synthesized by Microsynth AG.
The final concentration of the fluorescein-labeled DNA was kept constant at 3 nM. For YTHDC2 measurements, the protein concentration was set to 25 nM, while for YTHDF2 measurements, it was set to 10 nM, and for YTHDC1, it was set at 15 nM. The compound concentration was serially diluted to obtain the dose–response curve. The competition experiments were conducted in a final volume of 20 μL in a buffer containing 20 mM Tris–HCl (pH 7.4), 150 mM NaCl, and 0.01% bovine serum albumin (BSA), using a 384-well black flat-bottomed microplate (Corning 3575).
After incubating the mixture for 1 h, the anisotropy values were measured using a Tecan SPARK plate reader with 485/20 nm excitation and 535/25 nm emission polarization filters, suitable for fluorescein, at 25 °C. To obtain the equilibrium dissociation constant (K d), the IC50 values were first derived by fitting a dose–response curve to the data using nonlinear regression analysis in GraphPad Prism. These IC50 values were then converted to K d by using the Cheng–Prusoff equation: Kd=IC50/1+[L]/Kdprobe
IC50 is the observed value from FP assay, [L] is the probe concentration used, and K d ^probe is the binding affinity of probe for the target.

Structure (SMILES) | Kd [µM]
Cc1c(C(=O)NCc2cccnc2)sc2[nH]c(=S)[nH]c(=O)c12 [Compound 23] | 120
Cc1c(C(=O)NCc2cccc(C(=O)O)c2)sc2[nH]c(=S)[nH]c(=O)c12 [Compound 24] | 24
Cc1c(C(=O)NCCCC(=O)O)sc2[nH]c(=S)[nH]c(=O)c12 [Compound 25] | 32
Cc1c(-c2ccc([N+](=O)[O-])cc2)sc2[nH]c(=S)[nH]c(=O)c12 [Compound 26] | 61
Cc1c(-c2ccc(N)cc2)sc2[nH]c(=S)[nH]c(=O)c12 [Compound 27] | 14
NC(=O)c1csc2[nH]c(=S)[nH]c(=O)c12 [Compound 31] | 40

same assay, conditions: FP Kd values

Structure (SMILES) | Selectivity DF2 over DC1 (Kd ratio DC1/DF2) [fold]
Cc1c(C(=O)NCc2cccnc2)sc2[nH]c(=S)[nH]c(=O)c12 [Compound 23] | ~100
